In PMC10004634 (PLOS ONE, 2023):

Columns and labels:
Assay in all cases: biochemical
Design in all cases: KINOMEscan scanMAX competition binding, DNA-tagged kinases, qPCR read-out, percent control at 300 nM
HIPK1 = HIPK1 (Homo sapiens, UniProt Q86Z02); conditions: read-out: Percent control / Acalabrutinib
CDK3 = CDK3 (Homo sapiens, UniProt Q00526); conditions: read-out: Percent control / Acalabrutinib
[1] = target: T1, ABL1(F317I)-phosphorylated (Homo sapiens, UniProt P00519, F317I); conditions: read-out: Percent control / Acalabrutinib
T1 construct: phosphorylated

MAP3K3 = MAP3K3 (Homo sapiens, UniProt Q99759); conditions: read-out: Percent control / Acalabrutinib
Sequence of MAP3K3 (Q99759 whole entry): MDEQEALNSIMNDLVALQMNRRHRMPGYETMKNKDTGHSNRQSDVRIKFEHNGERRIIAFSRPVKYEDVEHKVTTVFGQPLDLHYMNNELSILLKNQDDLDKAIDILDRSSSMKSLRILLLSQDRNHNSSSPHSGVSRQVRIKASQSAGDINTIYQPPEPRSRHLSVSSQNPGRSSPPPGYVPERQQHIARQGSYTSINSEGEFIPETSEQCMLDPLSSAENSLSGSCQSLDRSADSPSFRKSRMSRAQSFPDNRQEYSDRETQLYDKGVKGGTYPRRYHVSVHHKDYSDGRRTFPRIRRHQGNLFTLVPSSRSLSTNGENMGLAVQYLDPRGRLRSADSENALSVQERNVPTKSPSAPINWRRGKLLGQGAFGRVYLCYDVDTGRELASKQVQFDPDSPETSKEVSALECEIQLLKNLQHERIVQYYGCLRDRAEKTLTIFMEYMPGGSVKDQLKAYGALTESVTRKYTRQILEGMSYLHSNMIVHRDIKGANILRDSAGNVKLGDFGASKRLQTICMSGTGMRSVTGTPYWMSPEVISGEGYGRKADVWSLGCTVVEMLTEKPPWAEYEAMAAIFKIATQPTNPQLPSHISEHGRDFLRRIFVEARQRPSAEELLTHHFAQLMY

ALK = ALK (Homo sapiens, UniProt Q9UM73); conditions: read-out: Percent control / Ibrutinib
DAPK3 = DAPK3 (Homo sapiens, UniProt O43293); conditions: read-out: Percent control / Ibrutinib
Sequence of DAPK3 (O43293 whole entry): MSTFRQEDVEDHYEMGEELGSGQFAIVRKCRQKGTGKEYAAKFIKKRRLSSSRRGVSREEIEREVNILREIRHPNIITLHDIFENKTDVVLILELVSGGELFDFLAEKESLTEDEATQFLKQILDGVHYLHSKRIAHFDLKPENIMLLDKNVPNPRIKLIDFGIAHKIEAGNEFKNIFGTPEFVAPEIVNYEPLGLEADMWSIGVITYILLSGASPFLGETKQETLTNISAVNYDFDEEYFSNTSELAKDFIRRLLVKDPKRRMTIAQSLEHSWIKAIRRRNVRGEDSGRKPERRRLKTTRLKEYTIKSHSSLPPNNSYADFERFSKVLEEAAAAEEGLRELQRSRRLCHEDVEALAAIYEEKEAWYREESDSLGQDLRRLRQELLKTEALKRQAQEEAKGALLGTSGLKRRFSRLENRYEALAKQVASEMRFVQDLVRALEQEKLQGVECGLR

EGFR(G719C) = EGFR(G719C) (Homo sapiens, UniProt P00533, G719C); conditions: read-out: Percent control / Tirabrutinib
Sequence of EGFR(G719C) (P00533 whole entry G719C): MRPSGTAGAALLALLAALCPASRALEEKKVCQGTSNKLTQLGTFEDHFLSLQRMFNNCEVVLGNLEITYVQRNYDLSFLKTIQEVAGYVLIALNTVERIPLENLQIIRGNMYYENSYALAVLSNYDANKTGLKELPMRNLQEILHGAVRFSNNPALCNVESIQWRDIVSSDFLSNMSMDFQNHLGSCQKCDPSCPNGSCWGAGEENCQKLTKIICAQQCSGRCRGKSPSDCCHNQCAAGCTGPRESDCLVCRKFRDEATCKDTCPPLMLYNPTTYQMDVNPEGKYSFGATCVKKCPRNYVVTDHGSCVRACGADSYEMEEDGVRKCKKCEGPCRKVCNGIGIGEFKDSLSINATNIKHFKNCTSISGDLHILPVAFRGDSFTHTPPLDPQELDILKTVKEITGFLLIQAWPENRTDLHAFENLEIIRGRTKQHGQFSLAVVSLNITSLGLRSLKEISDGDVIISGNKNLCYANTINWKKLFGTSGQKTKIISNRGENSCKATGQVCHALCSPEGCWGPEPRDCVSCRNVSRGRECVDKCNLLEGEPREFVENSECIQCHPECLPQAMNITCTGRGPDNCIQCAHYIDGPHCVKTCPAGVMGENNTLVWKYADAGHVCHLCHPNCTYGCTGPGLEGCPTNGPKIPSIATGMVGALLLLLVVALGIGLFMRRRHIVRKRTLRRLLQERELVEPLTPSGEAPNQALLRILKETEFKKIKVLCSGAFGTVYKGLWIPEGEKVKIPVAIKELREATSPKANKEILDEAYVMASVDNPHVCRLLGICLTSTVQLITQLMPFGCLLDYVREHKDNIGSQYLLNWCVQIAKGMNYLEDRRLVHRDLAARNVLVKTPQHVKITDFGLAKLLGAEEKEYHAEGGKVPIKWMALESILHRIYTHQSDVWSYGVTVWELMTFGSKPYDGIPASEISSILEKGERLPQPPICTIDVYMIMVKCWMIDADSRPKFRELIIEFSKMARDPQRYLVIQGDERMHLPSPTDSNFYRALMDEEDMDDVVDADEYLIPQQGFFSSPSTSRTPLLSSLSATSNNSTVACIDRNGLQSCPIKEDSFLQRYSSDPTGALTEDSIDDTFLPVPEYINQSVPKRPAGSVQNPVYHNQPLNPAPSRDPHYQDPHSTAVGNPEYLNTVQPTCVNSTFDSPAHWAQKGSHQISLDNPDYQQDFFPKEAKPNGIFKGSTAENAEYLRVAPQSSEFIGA

PRKG1 = PRKG1 (Homo sapiens, UniProt Q13976); conditions: read-out: Percent control / Tirabrutinib
EGFR(L861Q) = EGFR(L861Q) (Homo sapiens, UniProt P00533, L861Q); conditions: read-out: Percent control / Tirabrutinib
ACVR1 = ACVR1 (Homo sapiens, UniProt Q04771); conditions: read-out: Percent control / Zanubrutinib
IKK-alpha = target: T2, IKK-alpha (Homo sapiens, UniProt O15111); conditions: read-out: Percent control / Zanubrutinib
T2 construct: gene CHUK

PIK3CA(C420R) = PIK3CA(C420R) (Homo sapiens, UniProt P42336, C420R); conditions: read-out: Percent control / Zanubrutinib
Sequence of PIK3CA(C420R) (P42336 whole entry C420R): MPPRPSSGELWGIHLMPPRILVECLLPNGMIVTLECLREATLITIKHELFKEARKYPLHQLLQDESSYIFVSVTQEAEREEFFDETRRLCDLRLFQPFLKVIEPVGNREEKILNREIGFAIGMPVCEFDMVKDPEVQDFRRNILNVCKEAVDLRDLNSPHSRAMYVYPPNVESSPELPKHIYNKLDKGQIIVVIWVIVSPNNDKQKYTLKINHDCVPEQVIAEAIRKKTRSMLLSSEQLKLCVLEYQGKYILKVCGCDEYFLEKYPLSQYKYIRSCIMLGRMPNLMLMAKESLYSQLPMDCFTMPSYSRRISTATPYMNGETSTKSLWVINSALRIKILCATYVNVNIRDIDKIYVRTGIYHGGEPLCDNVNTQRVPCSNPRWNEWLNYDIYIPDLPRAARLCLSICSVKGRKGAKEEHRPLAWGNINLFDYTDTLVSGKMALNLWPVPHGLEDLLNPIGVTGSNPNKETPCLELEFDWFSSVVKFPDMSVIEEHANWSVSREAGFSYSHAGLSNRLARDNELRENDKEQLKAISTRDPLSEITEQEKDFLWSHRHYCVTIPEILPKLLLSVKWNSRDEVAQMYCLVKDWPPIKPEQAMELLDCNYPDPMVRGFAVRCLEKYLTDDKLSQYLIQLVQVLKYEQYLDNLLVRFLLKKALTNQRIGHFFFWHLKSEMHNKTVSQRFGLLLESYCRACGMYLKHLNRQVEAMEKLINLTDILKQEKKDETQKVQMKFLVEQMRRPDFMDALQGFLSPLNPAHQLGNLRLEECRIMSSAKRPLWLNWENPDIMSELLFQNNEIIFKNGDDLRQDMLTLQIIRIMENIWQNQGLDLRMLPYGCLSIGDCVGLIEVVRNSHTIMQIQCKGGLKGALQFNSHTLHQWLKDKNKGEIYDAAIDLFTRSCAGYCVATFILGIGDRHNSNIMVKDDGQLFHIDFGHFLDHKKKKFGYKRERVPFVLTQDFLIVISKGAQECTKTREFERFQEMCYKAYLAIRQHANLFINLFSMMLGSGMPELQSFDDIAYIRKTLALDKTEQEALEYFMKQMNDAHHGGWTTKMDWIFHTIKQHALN

S6K1 = target: T3, S6K1 (Homo sapiens, UniProt P23443); conditions: read-out: Percent control / Zanubrutinib
T3 construct: gene RPS6KB1

TRKC = target: T4, TRKC (Homo sapiens, UniProt Q16288); conditions: read-out: Percent control / Zanubrutinib
T4 construct: gene NTRK3
T4 sequence (Q16288 whole entry): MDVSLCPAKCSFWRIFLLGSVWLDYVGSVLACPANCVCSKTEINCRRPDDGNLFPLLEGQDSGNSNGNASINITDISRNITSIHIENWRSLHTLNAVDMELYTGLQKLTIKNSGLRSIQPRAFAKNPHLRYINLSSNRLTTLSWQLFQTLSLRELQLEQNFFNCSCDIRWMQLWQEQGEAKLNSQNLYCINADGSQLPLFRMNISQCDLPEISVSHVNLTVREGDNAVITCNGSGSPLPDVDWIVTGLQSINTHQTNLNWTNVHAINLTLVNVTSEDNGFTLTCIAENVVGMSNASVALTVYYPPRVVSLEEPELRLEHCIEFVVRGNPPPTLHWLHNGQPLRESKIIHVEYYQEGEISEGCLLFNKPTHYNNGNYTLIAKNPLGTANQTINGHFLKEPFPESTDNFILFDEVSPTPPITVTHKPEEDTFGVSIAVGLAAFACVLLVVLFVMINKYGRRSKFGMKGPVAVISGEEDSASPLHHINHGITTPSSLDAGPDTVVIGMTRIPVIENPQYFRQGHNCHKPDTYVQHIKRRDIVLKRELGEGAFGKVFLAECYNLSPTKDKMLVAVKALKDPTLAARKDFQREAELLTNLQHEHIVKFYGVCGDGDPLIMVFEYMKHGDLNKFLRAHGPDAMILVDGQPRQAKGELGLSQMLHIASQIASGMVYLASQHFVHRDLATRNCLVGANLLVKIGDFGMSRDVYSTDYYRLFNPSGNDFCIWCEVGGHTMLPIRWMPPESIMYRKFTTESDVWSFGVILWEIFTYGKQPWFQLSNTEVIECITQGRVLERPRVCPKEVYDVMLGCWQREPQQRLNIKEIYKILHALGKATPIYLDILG

RIOK2 = RIOK2 (Homo sapiens, UniProt Q9BVS4); conditions: read-out: Percent control / Zanubrutinib
CSNK2A2 = CSNK2A2 (Homo sapiens, UniProt P19784); conditions: read-out: Percent control / Zanubrutinib
AKT1 = AKT1 (Homo sapiens, UniProt P31749); conditions: read-out: Percent control / Zanubrutinib
MEK6 = target: T5, MEK6 (Homo sapiens, UniProt P52564); conditions: read-out: Percent control / Zanubrutinib
T5 construct: gene MAP2K6

PIK3CA(E545A) = PIK3CA(E545A) (Homo sapiens, UniProt P42336, E545A); conditions: read-out: Percent control / Zanubrutinib
Sequence of PIK3CA(E545A) (P42336 whole entry E545A): as the sequence (P42336 whole entry C420R) above, with R420C, E545A counted along it

MEK4 = target: T6, MEK4 (Homo sapiens, UniProt P45985); conditions: read-out: Percent control / Zanubrutinib
T6 construct: gene MAP2K4

PIM3 = PIM3 (Homo sapiens, UniProt Q86V86); conditions: read-out: Percent control / Zanubrutinib
LRRK2 = LRRK2 (Homo sapiens, UniProt Q5S007); conditions: read-out: Percent control / Zanubrutinib

Sequence of CDK3 (Q00526 whole entry): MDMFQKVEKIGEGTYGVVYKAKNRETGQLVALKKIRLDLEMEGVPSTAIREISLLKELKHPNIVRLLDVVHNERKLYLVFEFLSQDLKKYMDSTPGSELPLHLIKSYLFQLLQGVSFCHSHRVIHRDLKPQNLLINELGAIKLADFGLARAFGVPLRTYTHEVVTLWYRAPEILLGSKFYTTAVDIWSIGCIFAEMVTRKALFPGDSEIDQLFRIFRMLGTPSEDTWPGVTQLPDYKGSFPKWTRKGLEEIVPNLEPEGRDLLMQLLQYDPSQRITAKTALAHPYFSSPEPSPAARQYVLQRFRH

**Q.** Which results are given for `CC#CC(=O)N1CCC[C@H]1c1nc(-c2ccc(C(=O)Nc3ccccn3)cc2)c2c(N)nccn12` [Acalabrutinib]?
**A.** remaining binding at 0.3 µM (HIPK1): 85%; remaining binding at 0.3 µM (CDK3): 88%; remaining binding at 0.3 µM [1]: 94%; remaining binding at 0.3 µM (MAP3K3): 86%

**Q.** What does the source list for `C=CC(=O)N1CCC[C@@H](n2nc(-c3ccc(Oc4ccccc4)cc3)c3c(N)ncnc32)C1` [Ibrutinib]?
**A.** remaining binding at 0.3 µM (ALK): 87%; remaining binding at 0.3 µM (DAPK3): 92%

**Q.** Which remaining binding at 0.3 µM (EGFR(G719C)) does the source give for `CC#CC(=O)N1CC[C@@H](n2c(=O)n(-c3ccc(Oc4ccccc4)cc3)c3c(N)ncnc32)C1` [Tirabrutinib] here?
**A.** 54%

**Q.** And the remaining binding at 0.3 µM (PRKG1)?
**A.** 90%

**Q.** And the remaining binding at 0.3 µM (EGFR(L861Q))?
**A.** 86%

**Q.** How did the remaining binding at 0.3 µM (ACVR1) turn out when `C=CC(=O)N1CCC([C@@H]2CCNc3c(C(N)=O)c(-c4ccc(Oc5ccccc5)cc4)nn32)CC1` [Zanubrutinib] was run?
**A.** 100%

**Q.** And the remaining binding at 0.3 µM (IKK-alpha)?
**A.** 84%

**Q.** What about the remaining binding at 0.3 µM (PIK3CA(C420R)) of the same molecule?
**A.** 67%

**Q.** What about the remaining binding at 0.3 µM (S6K1) of the same molecule?
**A.** 88%

**Q.** What about the remaining binding at 0.3 µM (TRKC) of the same molecule?
**A.** 97%

**Q.** And the remaining binding at 0.3 µM (RIOK2)?
**A.** 94%

**Q.** What about the remaining binding at 0.3 µM (CSNK2A2) of the same molecule?
**A.** 100%

**Q.** What about the remaining binding at 0.3 µM (AKT1) of the same molecule?
**A.** 100%

**Q.** What about the remaining binding at 0.3 µM (MEK6) of the same molecule?
**A.** 75%

**Q.** What about the remaining binding at 0.3 µM (PIK3CA(E545A)) of the same molecule?
**A.** 59%

**Q.** What about the remaining binding at 0.3 µM (MEK4) of the same molecule?
**A.** 93%

**Q.** What about the remaining binding at 0.3 µM (PIM3) of the same molecule?
**A.** 84%

**Q.** What about the remaining binding at 0.3 µM (LRRK2) of the same molecule?
**A.** 64%
